The subject of this assay is homozygous knockout mice (+/DAT-cre; Tfam^loxP/Tfam^loxP). As to the kind of experiment: L-DOPA treatment, open field activity cages (locomotion and rearing). Format: in vivo, mouse. Here is the method:
Open field activity was examined in automated activity cages. This consisted of Plexiglas boxes (35×35×18 cm) with a lower and a higher row of infrared sensitive photocells and a microcomputer registering interruption of photocell beams. Animals were tested during the light phase of the light-dark cycle, between 9:00 and 13:00 h. Locomotor activity was registered when animals interrupted the lower row of photocells and rearing was registered when the higher row was interrupted. Animals were individually placed gently in the open field arena and remained there during 60 min. Locomotion and rearing counts were registered every 10 min. For the L-DOPA treatment, spontaneous locomotion and rearing were measured in activity cages as above. Animals were then given i.p. injections of L-DOPA combined with the peripheral dopa decarboxylase inhibitor benzerazide (Madopark 20 mg/kg in PBS; Roche) or PBS and were then immediately put back into the activity cages for another 60 minutes of recording. The scoring of counts was given as mean+/−SEM. Statistical significance was tested using 2-way ANOVA analysis. The open field box was cleaned with 70% alcohol after each test.

[1] abbreviates: 20 and 30 week old homozygous knockout mice, L-DOPA 20 mg/kg i.p. vs saline, 60 min recording.

The structures appear in SMILES notation. “Also recorded” adds a separate entry of the source.

Consider `N[C@@H](Cc1ccc(O)c(O)c1)C(=O)O` [L-DOPA], for which the motor performance entry (20 and 30 week old homozygous knockout mice) is reported as “improved motor performance”. In addition, under setting [1], the locomotion entry is “increased locomotion” and the rearing entry is listed as “increase in rearing was similar; also recorded: increase of rearing”. In addition, the progressive movement disorder result (Parkinson mouse model, L-DOPA treatment) is given as “partially reversed”. Also, under “older (30 week old) homozygous knockout mice”, the “locomotor response, course over time” value was “abruptly terminated”. For the same compound, under “younger (20 week old) homozygous knockout mice, identical L-DOPA dose”, the “locomotion response, younger vs older mice” value was “more pronounced and longer lasting locomotion response; also recorded: greater locomotion response”.

These data come from patent US8008540B2, “Transgenic non-human animal for use in research models for studying Parkinson's disease” (Kampavata AB, priority 2004, dated 2011).
